Source: publication PMC6696413 (Molecules, 2019)
Read-outs that look alike come from different tables or passages of the source.

Legend:
Type in all cases: biochemical
α-glucosidase = experiment: α-Glucosidase inhibitory activity experiment (PNPG, 405 nm); details: 96-well plate, PBS pH 7.4, 37 °C, PNPG substrate; acarbose positive control
Procedure: In a 96-well plate, group A was added 20 μL of 0.1 mol/L PBS (phosphate buffered saline (pH 7.4)), 20 μL of the sample (standard solution dissolved in DMSO to the concentration of 1.0 mg/mL) and 20 μL of α-glucosidase as a sample group (n = 3); Group B was added 40 μL of 0.1 mol/L PBS and 20 μL of the sample as the control group (n = 3); Group C was added 40 μL 0.1 mol/L PBS and 20 μL α-glucosidase as blank group (n = 3); after incubation for 15 min at 37 °C, then 2.5 mmol/L PNPG glycoside was added to each well and incubated at 37 °C. The reaction was stopped by adding 80 μL of a 0.2 mol/L Na2CO3 solution to each well after 15 min.

acetylcholinesterase = acetylcholinesterase (Homo sapiens, UniProt P22303); experiment: biochemical
tyrosinase = experiment: Tyrosinase inhibitory activity experiment (L-tyrosine, 405 nm); details: 96-well plate, PBS, L-tyrosine substrate, 37 °C 30 min; kojic acid positive control
Procedure: In a 96-well plate, group A was added 80 μL of 0.1 mol/L PBS, 50 μL of solvent (solvent used to dissolve the sample: DMSO) and 50 μL of tyrosinase as a blank group (n = 2); group B was added 130 μL of 0.1 mol/L PBS and 50 μL of solvent as blank background group (n = 2); group C was added with 80 μL of 0.1 mol/L PBS, 50 μL of the sample (standard solution dissolved in DMSO to the concentration of 1.0 mg/mL) and 50 μL of tyrosinase as the experimental group (n = 2); group D were added 130 μL of 0.1 mol/L PBS and 50 μL of the sample as experimental background group (n = 2); finally, 20 μL of substrate (L-tyrosine) was added to each well to trigger the reaction, and the 96-well plate was further incubated at 37 °C.

[1] = 96-well plate, PBS, ACTI and DTNB, 37 °C 20 min, huperzine A positive control, read-out: Acetylcholinesterase inhibitory activity IC50 (converted)

acetylcholinesterase, sequence (P22303 32-614, species assumed): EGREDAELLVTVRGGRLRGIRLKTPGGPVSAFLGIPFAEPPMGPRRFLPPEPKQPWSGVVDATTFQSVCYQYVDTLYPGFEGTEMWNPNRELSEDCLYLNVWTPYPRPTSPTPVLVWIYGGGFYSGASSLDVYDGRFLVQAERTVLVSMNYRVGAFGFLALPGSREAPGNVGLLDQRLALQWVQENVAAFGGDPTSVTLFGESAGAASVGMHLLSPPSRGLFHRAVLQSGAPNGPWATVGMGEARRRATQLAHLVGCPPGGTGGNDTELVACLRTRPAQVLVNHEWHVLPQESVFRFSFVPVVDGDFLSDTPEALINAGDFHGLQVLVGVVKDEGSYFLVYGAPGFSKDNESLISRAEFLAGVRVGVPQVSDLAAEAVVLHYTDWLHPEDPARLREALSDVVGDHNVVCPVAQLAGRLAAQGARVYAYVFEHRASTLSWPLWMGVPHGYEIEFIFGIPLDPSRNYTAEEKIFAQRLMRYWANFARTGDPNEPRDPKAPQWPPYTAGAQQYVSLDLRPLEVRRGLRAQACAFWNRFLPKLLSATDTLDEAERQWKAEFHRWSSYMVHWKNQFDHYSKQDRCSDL

| Structure (SMILES) | α-glucosidase activity inhibition IC50 (α-glucosidase) [µg/mL] | IC50 (acetylcholinesterase; [1]) [µM] | Tyrosinase inhibitory activity IC50 (tyrosinase) [µg/mL] | IC50 (acetylcholinesterase) [µM] |
| --- | --- | --- | --- | --- |
| CC(C)[C@@H](C)/C=C/[C@@H](C)[C@H]1CC[C@@H]2[C@]1(C)CC[C@H]1[C@]23C=C[C@]2(C[C@@H](O)CC[C@]12C)OO3 [Compound 8, ergosterol peroxide] | 452.50 | 1170 | 202.37 |  |
| C[C@@H]1O[C@@H](OC[C@H]2O[C@@H](Oc3c(-c4ccc(O)c(O)c4)oc4cc(O)cc(O)c4c3=O)[C@H](O)[C@@H](O)[C@@H]2O)[C@H](O)[C@H](O)[C@H]1O [Compound 7, rutin] |  |  |  | 806 |
| CC#CC#CC#CC#CC#CC(CO)O[C@@H]1O[C@H](CO)[C@@H](O)[C@H](O)[C@H]1O (stereo partly drawn) [Compound 10, 2-β-D-glucopyranosyloxy-1-hydroxytrideca-3,5,7,9,11-pentayne] | 492.11 | 1450 |  |  |
| OCC1OC(OC2C(CO)OC(OC3C(CO)OC(OC4(CO)OC(CO)C(O)C4O)C(O)C3O)C(O)C2O)C(O)C(O)C1O [Compound 12, O-α-D-glucopyranosyl-(1→4)-α-D-glucopyranosyl-(1→4)-α-D-glucopyranosyl-(1→2)-β-D-fructofuranoside] | 444.88 | 761 | 1750.08 |  |
| COC1OC(CNC2C(OC)OC(CO)C(O)C2O)C(O)C(O)C1O [Compound 11, α-D-Alt-p-OMe (N2-6) α-D-Gle-p-OMe] | 318.44 | 1400 | 302.42 |  |
| O=c1c(O)c(-c2ccc(O)cc2)oc2cc(O)cc(O)c12 [Compound 3, kaempferol] |  |  |  | 1760 |
| O=c1cc(-c2ccc(O)c(O)c2)oc2cc(O)cc(O)c12 [Compound 1, luteolin] |  |  | 1643.11 | 1660 |
